These are literature values, as cited in US20240226034A1, “Use of Terpenoids and Salicylates as Anesthetics and Analgesics” (THE REGENTS OF THE UNIVERSITY OF CALIFORNIA, priority 2021, published 2024).

In series [1] the test system is sciatic nerve axon of frogs. As to conditions: frog sciatic nerve axon; read-out: IC50, decrease of compound action potential amplitude; cited from earlier work.
The test system of series [2] is GABAA receptors, rat cerebral cortex cell cultures. The note with it: 0.75 mM; cited from earlier work.

By IC50 is commonly meant the concentration that inhibits the measured activity by half. Consider L-carvone, for which the IC50 in series [1] is 1400 µM. Besides, the “reduction of GABAA-induced benzodiazepine binding” value in series [2] is on record as 36%.
